Data reported in patent US11234960B2, “Compositions and methods for improving mitochondrial function and treating neurodegenerative diseases and cognitive disorders” (Amazentis SA, priority 2010, dated 2022).

Assays:
HFD-fed C57BL6/J mice = assay: Oral glucose tolerance test in HFD-fed mice; type: in vivo; conditions: 10 weeks of treatment (FIG. 24)
Description: Mice in different treatment groups were administered (i) urolithin A mixed with food (food admix) to reach a dosing of 55 mg/kg body weight/day (mkd); (ii) ellagic acid mixed with food (food admix) to reach a dosing of 75 mkd; (iii) punicalagin (gavage) to reach a dosing of 90 mkd; or (iv) pomegranate extract (PE) (gavage) to reach a dosing of 140 mkd of total polyphenols. A typical pomegranate extract used in these experiments had the following composition: polyphenols, 140 mkd; punicalagin, 13.1 mkd; and ellagic acid, 13.2 mkd. For animals treated by gavage, gavage was performed daily (7 days/week) between 8:00 and 10:00 a.m.; compounds were mixed with saline solution (0.9% NaCl) and provided at a final volume of 5 mL/kg of body weight. Mice in high-fat control groups were fed with the same diet as the experimental animals. Mice in corresponding different control groups were administered either high-fat diet alone or high-fat diet plus daily gavage with vehicle (saline). Another control group of mice were fed standard chow diet alone.
Male C57BL6/J mice were grouped and treated as described in Example 7. In addition, glucose tolerance test (GTT) was performed for HFD-fed mice which developed glucose intolerance. Glucose tolerance test was monitored 10 weeks after the initiation of the treatment by Oral Glucose Tolerance Test (oGTT). Animals were fasted for 12 h (from 8 pm to 8 am) before oGTT. The day of the oGTT, a small drop of blood (<2 μL) was collected from the lateral tail vein and glycemia was monitored using a glucometer (AccuCheck Aviva, Roche Diagnosis). Each animal then received, at time 0, an oral dose of D-glucose at a dosing of 2 g/kg body weight. Glycemia was then monitored at times 15, 30, 45, 60, 90, 120, and 150 min after oral glucose load.

normal mice = assay: Contextual fear conditioning (contextual memory) in normal mice; type: in vivo; conditions: punicalagin approx. 90 mg/kg/day 3 months; for contextual memory, freezing 24 hours after training: urolithin A approx. 55 mg/kg/day 2.5 months (FIG. 46); for memory retention, extinction of contextual memory over days 1-5: urolithin A approx. 55 mg/kg/day 2.5 months (FIG. 47)
Description: Beginning at 3 months of age, mice were either fed (i) a standard control diet such as AIN-93G; (ii) a diet containing punicalagin at a concentration of […], so as to deliver an approximate dose of 90 mg/kg/day (for a period of 3 months); or (iii) a diet containing urolithin A at a concentration of […], so as to deliver an approximate dose of 55 mg/kg/day (for a period of 2.5 months). Actual doses vary slightly depending on the food consumption of each individual mouse, as well as the weight of the mouse. Behavioral assessment of cognition was measured after this period.
To examine the effect of pomegranate-derived compounds on memory and cognition, mice were examined for improvements in contextual memory utilizing the contextual fear conditioning assay. Mice were trained in a fear conditioning chamber as described in Example 19.
During training, animals were placed into the chamber one at a time. After four minutes of exploration inside the chamber, one foot shock (2 seconds and 0.4 mA) was administered, followed by a second foot shock (2 seconds and 0.4 mA) one minute later. Thirty seconds after the second foot shock, the mouse was placed back into its home cage.
One day later, trained animals were returned to the chamber for a period of three minutes. During this period mice were monitored for their movement. The amount of time spent immobile or “frozen” was scored as a percentage of the total time (3 minutes) under observation. The time spent immobile is a measure of the strength of the memory of the mice to recall the context in which they were trained.
To determine the effect of these pomegranate-derived compounds on memory retention, normal mice fed either (i) a control diet; (ii) punicalagin (for a period of 3 months) or (iii) urolithin A (for a period of 2.5 months) were studied for their memory recall on days 1, 2, 3, 4 and 5 after the initial contextual fear training.
Animals were placed in the same chamber and context for 3 min daily (same time of day, however no shock this time) for the 5 days that followed the initial testing. Freezing behavior induced by the simple contextual recognition by the animals of the chamber, where they received the initial shock, was measured during each of these daily 3-minute periods. The ability to recognize this environment in the absence of the stimulus is a measurement of contextual memory.

[1] = test system: high fat diet (HFD)-fed C57BL6/J mice; assay: Body weight and body composition (EchoMRI) in high-fat diet fed mice; type: in vivo; conditions: for body weight gain: HFD-fed mice vs control HFD-fed mice, PE 140 mkd polyphenols gavage (FIG. 17A); for body weight gain / percentage fat mass (EchoMRI): urolithin A 55 mkd food admix, punicalagin 90 mkd gavage; for percentage of lean mass (EchoMRI) / percentage fat mass (EchoMRI): HFD-fed mice; for percentage of lean mass (EchoMRI): 5 weeks of treatment (FIG. 17C); for percentage fat mass (EchoMRI): 5 weeks of treatment, PE 140 mkd gavage (FIG. 17B)
Description: Male C57BL6/J mice were purchased from Charles River Laboratory (L'Arbresle, France) at the age of 7 weeks and acclimatized to the animal facility for 2 weeks before initiation of experiments. Mice were housed in groups of 5 in standard housing conditions, with a 12 hr light-dark cycle and free access to food and water. Beginning at 9 weeks of age, mice were fed a high-fat diet (HFD) (60% kcal from fat; D12492; Research Diets Inc., New Brunswick, N.J., USA) for fourteen weeks. Body weight was monitored weekly.
Body composition was monitored by EchoMRI (Echo Medical Systems, Houston, Tex., USA) 5 weeks after the initiation of the treatment for high-fat diet fed mice and 2 weeks after the initiation of the treatment for chow diet fed mice. Animals were placed individually into a plastic cylinder and then introduced into an EchoMRI system for about 2 min for body composition scanning (lean and fat mass).

citrate synthase = assay: Citrate synthase activity in C2C12 myotubes; type: cell-based; conditions: 48 hr, punicalagin 1 or 10 μM, ellagic acid or urolithin 1, 10 or 50 μM (FIG. 4)
Description: The enzyme citrate synthase catalyzes the reaction between acetyl coenzyme A (acetyl CoA) and oxaloacetic acid to form citric acid. The acetyl CoA contributes 2 carbons to the 4 carbons of oxaloacetate, resulting in citrate with 6 carbons. The hydrolysis of the thioester of acetyl CoA results in the formation of CoA with a thiol group (CoA-SH). The activity of citrate synthase is measured via the reaction between the thiol of CoA-SH with the DTNB in the mixture to form 5-thio-2-nitrobenzoic acid (TNB). This yellow product (TNB) is observed spectrophotometrically by measuring absorbance at 412 nm (Citrate Synthase Assay Kit, Cat Number CS0720, Sigma Aldrich).
C2C12 myoblasts were differentiated into myotubes by serum deprivation for 4 days (Canto et al. (2009) Nature. 458:1056-60). Myotubes were incubated for 48 hr with punicalagin at a final concentration of 1 or 10 μM or with ellagic acid or urolithin at a final concentration of 1, 10 or 50 μM (all dissolved in DMSO, final concentration 0.1%). DMSO was used as a control (final concentration 0.1%). At the end of the treatment, cells were washed 3 times with PBS and assayed for citrate synthase activity according to manufacturer's instructions (Citrate Synthase Assay Kit, Cat Number CS0720, Sigma Aldrich).

SMILES: O=C1O[C@H]2[C@@H]3OC(=O)c4cc(O)c(O)c(O)c4-c4c(O)c(O)c5oc(=O)c6c(c(O)c(O)c7oc(=O)c4c5c76)-c4c(cc(O)c(O)c4O)C(=O)OC[C@H]3OC(O)[C@@H]2OC(=O)c2cc(O)c(O)c(O)c2-c2c1cc(O)c(O)c2O (mixture of isomers) [punicalagin, 2,3 hexahydroxydiphenoyl-4,6-gallagylglucose]
- glucose tolerance (oGTT, glycemia after 2 g/kg D-glucose) (HFD-fed C57BL6/J mice): improved glucose tolerance
- contextual memory, freezing 24 hours after training (normal mice): significant improvements in contextual memory
- memory retention, extinction of contextual memory over days 1-5 (normal mice): improved memory retention
- body weight gain [1]: strong reduction of body weight gain
- percentage of lean mass (EchoMRI) [1]: statistically significant increase in the percentage of lean mass
- percentage fat mass (EchoMRI) [1]: significantly reduced
- citrate synthase activity (citrate synthase): increase citrate synthase activity in a dose-dependent manner

SMILES: O=c1oc2c(O)c(O)cc3c(=O)oc4c(O)c(O)cc1c4c23 [ellagic acid]
- glucose tolerance (oGTT, glycemia after 2 g/kg D-glucose) (HFD-fed C57BL6/J mice): improved glucose tolerance
- citrate synthase activity (citrate synthase): increase citrate synthase activity in a dose-dependent manner

SMILES: O=c1oc2cc(O)ccc2c2ccc(O)cc12 [urolithin A, 3,8-Dihydroxydibenzo-α-pyrone]
- glucose tolerance (oGTT, glycemia after 2 g/kg D-glucose) (HFD-fed C57BL6/J mice): improved glucose tolerance
- contextual memory, freezing 24 hours after training (normal mice): significant improvements in contextual memory
- memory retention, extinction of contextual memory over days 1-5 (normal mice): improved memory retention
- body weight gain [1]: strong reduction of body weight gain
- percentage of lean mass (EchoMRI) [1]: statistically significant increase in the percentage of lean mass
- percentage fat mass (EchoMRI) [1]: significantly reduced
- citrate synthase activity (citrate synthase): increase citrate synthase activity in a dose-dependent manner
